Tested on: psoriasis
Experiment: Case studies: clinical treatment of resistant psoriasis
Type: in vivo, human
Conditions: Case No. 9; Methotrexate 5-10 mg per week from April 2001, Psorex stopped; summer to August 2001
Description: The following case studies are presented to show results from clinical trials of the present invention on resistant cases of psoriasis, eczema and seborrhea.
A combination of Psorizide Ultra® and Psorex® was employed in some of these case studies. In others, a combination of Psorizide Ultra® and Fumaric Acid 1× was used. Psorizide Ultra® is a natural mineral homeopathic medication commercially available from Applicant's company, i.e. LOMA LUX Laboratories, 5801 E. 41st Street, Suite 200, Tulsa, Okla. 74135. This prescription drug includes active ingredients of nickel sulfate and potassium bromide.
Psorex® is a scientifically designed supplement containing reagent grade fumaric acid esters. This supplement is commercially available from Ecological Formulas at 1-800-888-4585. Each Psorex® capsule contains 120 mg fumaric acid ester.
Fumaric Acid 1×300 mg tablets are commercially available from B.H.I., 11600 Cochiti Road SE, Albuquerque, N.Mex. 87123-3376. Each Fumaric Acid 1× tablet contains approximately 30 mg of fumaric acid.
The patient is a person with a ten year history of psoriasis of the anogenital region. They had been treated with numerous topical lotions with only limited results. More recently they also developed left knee involvement and flaring of all disease sites due to surgery. They presented November 2000 complaining of itching. […]

CN(Cc1cnc2nc(N)nc(N)c2n1)c1ccc(C(=O)N[C@@H](CCC(=O)O)C(=O)O)cc1 [Methotrexate®, Methotrexate]
clinical condition of plaque psoriasis: doing very well through the summer, but by August 2001 the psoriasis was worse
